# Experimental data published in patent US11998537B2, “Substituted indole dimer compounds” (BRISTOL-MYERS SQUIBB COMPANY, priority 2018, dated 2024).
# Experiments:
# Assay type in all cases: cell-based
# [1] = target: T1, human TLR9 (Homo sapiens, UniProt Q9NR96); experiment: TLR9 inhibition reporter assay (HEK-Blue SEAP); settings: HEK-Blue cells overexpressing human TLR9, ODN2006 5 nM, 22 hour incubation
# T1 construct: host or cells: HEK-Blue cells (HEK293-derived reporter line)
# T1 sequence (Q9NR96 26-1032): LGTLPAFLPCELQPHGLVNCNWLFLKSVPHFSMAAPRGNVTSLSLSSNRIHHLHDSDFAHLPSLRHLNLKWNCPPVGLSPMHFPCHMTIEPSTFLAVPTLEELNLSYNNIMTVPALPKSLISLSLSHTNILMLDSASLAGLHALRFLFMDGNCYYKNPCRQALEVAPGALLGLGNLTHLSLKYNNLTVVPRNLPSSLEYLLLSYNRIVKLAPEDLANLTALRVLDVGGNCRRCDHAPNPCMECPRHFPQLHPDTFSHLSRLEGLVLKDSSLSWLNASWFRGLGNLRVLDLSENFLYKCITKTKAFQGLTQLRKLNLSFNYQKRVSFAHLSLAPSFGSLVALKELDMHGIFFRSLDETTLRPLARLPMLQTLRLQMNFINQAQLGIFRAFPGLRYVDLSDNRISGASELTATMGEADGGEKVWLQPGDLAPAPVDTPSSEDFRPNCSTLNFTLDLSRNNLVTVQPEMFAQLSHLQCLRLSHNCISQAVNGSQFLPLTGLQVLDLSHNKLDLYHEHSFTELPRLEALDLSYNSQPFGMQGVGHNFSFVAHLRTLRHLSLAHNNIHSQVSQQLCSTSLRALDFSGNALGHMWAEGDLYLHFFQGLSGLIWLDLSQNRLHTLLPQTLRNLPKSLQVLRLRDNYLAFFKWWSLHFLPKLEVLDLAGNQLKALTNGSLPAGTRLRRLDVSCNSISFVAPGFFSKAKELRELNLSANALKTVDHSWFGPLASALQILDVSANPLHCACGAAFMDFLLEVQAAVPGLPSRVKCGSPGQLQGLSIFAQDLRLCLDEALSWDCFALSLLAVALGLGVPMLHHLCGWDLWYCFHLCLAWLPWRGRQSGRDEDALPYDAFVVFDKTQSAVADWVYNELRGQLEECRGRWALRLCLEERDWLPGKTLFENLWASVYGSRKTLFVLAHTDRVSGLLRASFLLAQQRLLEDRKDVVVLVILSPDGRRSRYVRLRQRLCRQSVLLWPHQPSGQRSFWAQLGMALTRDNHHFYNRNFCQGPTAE
# Experimental: (§1) TLR7/8/9 Inhibition Reporter Assays
# (§2) HEK-Blue™-cells (Invivogen) overexpressing human TLR7, TLR8 or TLR9 receptors were used for screening inhibitors of these receptors using an inducible SEAP (secreted embryonic alkaline phosphatase) reporter gene under the control of the IFN-β minimal promoter fused to five NF-κB and AP-1-binding sites. Briefly, cells are seeded into Greiner 384 well plates (15000 cells per well for TLR7, 20,000 for TLR8 and 25,000 for TLR9) and then treated with test compounds in DMSO to yield a final dose response concentration range of 0.05 nM-50 μM. After a 30 minute compound pre-treatment at room temperature, the cells are then stimulated with a TLR7 ligand (gardiquimod at a final concentration of 7.5 μM), TLR8 ligand (R848 at a final concentration of 15.9 μM) or TLR9 ligand (ODN2006 at a final concentration of 5 nM) to activate NF-κB and AP-1 which induce the production of SEAP. After a 22 hour incubation at 37° C., 5% CO2, SEAP levels are determined with the addition of HEK-Blue™ Detection reagent (Invivogen), a cell culture medium that allows for detection of SEAP, according to manufacturer's specifications. The percent inhibition is determined as the % reduction in the HEK-Blue signal present in wells treated with agonist plus DMSO alone compared to wells treated with a known inhibitor.
# [2] = target: T2, human TLR7 (Homo sapiens, UniProt Q9NYK1); experiment: TLR7 inhibition reporter assay (HEK-Blue SEAP); settings: HEK-Blue cells overexpressing human TLR7, gardiquimod 7.5 μM, 22 hour incubation
# T2 construct: host or cells: HEK-Blue cells (HEK293-derived reporter line)
# T2 sequence (Q9NYK1 27-1049): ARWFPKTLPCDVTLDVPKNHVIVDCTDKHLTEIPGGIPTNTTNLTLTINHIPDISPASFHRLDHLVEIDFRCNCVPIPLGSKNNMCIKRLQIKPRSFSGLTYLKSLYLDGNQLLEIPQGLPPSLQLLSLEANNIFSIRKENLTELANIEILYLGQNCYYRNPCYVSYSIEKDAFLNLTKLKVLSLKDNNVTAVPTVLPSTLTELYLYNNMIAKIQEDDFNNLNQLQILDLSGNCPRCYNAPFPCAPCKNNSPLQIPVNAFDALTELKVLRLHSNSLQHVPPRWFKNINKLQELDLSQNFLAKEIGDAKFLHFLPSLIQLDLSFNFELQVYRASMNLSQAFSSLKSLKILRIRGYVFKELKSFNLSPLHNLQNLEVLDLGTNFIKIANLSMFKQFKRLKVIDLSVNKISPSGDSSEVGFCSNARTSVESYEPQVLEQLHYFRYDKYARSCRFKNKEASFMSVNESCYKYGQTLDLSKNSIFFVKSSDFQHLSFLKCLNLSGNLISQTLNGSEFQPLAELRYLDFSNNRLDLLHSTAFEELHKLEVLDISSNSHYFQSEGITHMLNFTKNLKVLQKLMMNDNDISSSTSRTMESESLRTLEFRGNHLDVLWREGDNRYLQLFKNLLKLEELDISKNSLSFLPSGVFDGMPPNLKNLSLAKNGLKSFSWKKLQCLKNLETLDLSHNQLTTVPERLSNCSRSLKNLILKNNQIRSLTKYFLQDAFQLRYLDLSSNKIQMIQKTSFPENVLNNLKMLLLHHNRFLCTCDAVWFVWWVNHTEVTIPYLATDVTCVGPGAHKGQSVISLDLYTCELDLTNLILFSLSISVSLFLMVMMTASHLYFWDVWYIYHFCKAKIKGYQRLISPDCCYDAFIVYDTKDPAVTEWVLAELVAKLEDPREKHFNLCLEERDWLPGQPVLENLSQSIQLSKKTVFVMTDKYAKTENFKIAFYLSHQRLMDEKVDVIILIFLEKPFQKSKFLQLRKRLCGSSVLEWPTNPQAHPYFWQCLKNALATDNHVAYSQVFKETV
# Experimental: as §1, §2
# [3] = target: T3, human TLR8 (Homo sapiens, UniProt Q9NR97); experiment: TLR8 inhibition reporter assay (HEK-Blue SEAP); settings: HEK-Blue cells overexpressing human TLR8, R848 15.9 μM, 22 hour incubation
# T3 construct: host or cells: HEK-Blue cells (HEK293-derived reporter line)
# T3 sequence (Q9NR97 27-1041): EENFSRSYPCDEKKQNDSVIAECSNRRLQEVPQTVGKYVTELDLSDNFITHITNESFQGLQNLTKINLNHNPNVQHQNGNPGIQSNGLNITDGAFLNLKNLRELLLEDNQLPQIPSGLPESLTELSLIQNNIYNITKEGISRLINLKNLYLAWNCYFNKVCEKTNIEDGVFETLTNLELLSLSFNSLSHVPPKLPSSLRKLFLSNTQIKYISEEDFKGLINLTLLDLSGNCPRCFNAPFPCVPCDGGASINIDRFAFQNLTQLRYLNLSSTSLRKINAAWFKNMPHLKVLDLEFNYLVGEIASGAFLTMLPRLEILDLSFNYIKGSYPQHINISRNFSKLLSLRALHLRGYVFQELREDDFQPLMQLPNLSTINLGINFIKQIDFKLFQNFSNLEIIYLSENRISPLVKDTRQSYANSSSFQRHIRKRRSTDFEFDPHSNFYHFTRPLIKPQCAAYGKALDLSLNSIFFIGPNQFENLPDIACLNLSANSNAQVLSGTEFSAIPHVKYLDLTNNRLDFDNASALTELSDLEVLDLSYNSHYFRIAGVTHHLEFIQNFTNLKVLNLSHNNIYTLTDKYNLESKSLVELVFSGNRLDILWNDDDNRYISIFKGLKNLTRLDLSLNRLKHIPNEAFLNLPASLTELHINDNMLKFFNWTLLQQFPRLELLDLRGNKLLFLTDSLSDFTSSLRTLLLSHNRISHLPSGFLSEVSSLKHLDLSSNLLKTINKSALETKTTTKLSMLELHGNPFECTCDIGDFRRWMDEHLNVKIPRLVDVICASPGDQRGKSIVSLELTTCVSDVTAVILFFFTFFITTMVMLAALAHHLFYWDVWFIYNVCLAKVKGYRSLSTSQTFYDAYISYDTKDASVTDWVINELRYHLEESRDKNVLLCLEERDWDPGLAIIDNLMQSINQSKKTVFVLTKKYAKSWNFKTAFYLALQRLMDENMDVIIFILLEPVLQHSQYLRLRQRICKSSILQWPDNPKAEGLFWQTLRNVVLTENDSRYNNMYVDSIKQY
# Experimental: as §1, §2
Molecule,IC50 [1] [µM],IC50 [2] [µM],IC50 [3] [µM]
"COc1cc(-c2[nH]c3ccc(C4CCN(CCNC(=O)CCCCC(=O)NCCN5CCC(c6ccc7[nH]c(-c8cc(OC)c9ncnn9c8)c(C(C)C)c7c6)CC5)CC4)cc3c2C(C)C)cn2ncnc12 [Example 9, N1,N6-bis(2-(4-(3-isopropyl-2-(8-methoxy-[1,2,4]triazolo[1,5-a]pyridin-6-yl)-1H-indol-5-yl)piperidin-1-yl)ethyl)adipamide]",0.348,0.00019,0.00059
"COc1cc(-c2[nH]c3ccc(C4CCN(CCNC(=O)CCC(=O)NCCN5CCC(c6ccc7[nH]c(-c8cc(OC)c9ncnn9c8)c(C(C)C)c7c6)CC5)CC4)cc3c2C(C)C)cn2ncnc12 [Example 11, N1,N4-bis(2-(4-(3-isopropyl-2-(8-methoxy-[1,2,4]triazolo[1,5-a]pyridin-6-yl)-1H-indol-5-yl)piperidin-1-yl)ethyl)succinamide]",4.6,0.017,0.143
"COc1cc(-c2[nH]c3ccc(C4CCN(CCCCCCCCCCCCCCCCCCN5CCC(c6ccc7[nH]c(-c8cc(OC)c9ncnn9c8)c(C(C)C)c7c6)CC5)CC4)cc3c2C(C)C)cn2ncnc12 [Example 12, 1,18-bis(4-(3-isopropyl-2-(8-methoxy-[1,2,4]triazolo[1,5-a]pyridin-6-yl)-1H-indol-5-yl)piperidin-1-yl)octadecane]",13.4,0.191,0.509

# The next molecules have a lower IC50 [1] than those just listed; values first:
IC50 [1] [µM],IC50 [2] [µM],IC50 [3] [µM],Molecule
0.148,0.00017,0.0002,"COc1cc(-c2[nH]c3ccc(C4CCN(CCNC(=O)CCCCCCC(=O)NCCN5CCC(c6ccc7[nH]c(-c8cc(OC)c9ncnn9c8)c(C(C)C)c7c6)CC5)CC4)cc3c2C(C)C)cn2ncnc12 [Example 6, N1,N8-bis(2-(4-(3-isopropyl-2-(8-methoxy-[1,2,4]triazolo[1,5-a]pyridin-6-yl)-1H-indol-5-yl)piperidin-1-yl)ethyl)octanediamide]"
0.098,0.00014,0.00024,"COc1cc(-c2[nH]c3ccc(C4CCN(CCNC(=O)CCCCCCCCC(=O)NCCN5CCC(c6ccc7[nH]c(-c8cc(OC)c9ncnn9c8)c(C(C)C)c7c6)CC5)CC4)cc3c2C(C)C)cn2ncnc12 [Example 7, N1,N10-bis(2-(4-(3-isopropyl-2-(8-methoxy-[1,2,4]triazolo[1,5-a]pyridin-6-yl)-1H-indol-5-yl)piperidin-1-yl)ethyl)decanediamide]"
0.175,0.00019,0.00028,"COc1cc(-c2[nH]c3ccc(C4CCN(CCNC(=O)CCCCCC(=O)NCCN5CCC(c6ccc7[nH]c(-c8cc(OC)c9ncnn9c8)c(C(C)C)c7c6)CC5)CC4)cc3c2C(C)C)cn2ncnc12 [Example 8, N1,N7-bis(2-(4-(3-isopropyl-2-(8-methoxy-[1,2,4]triazolo[1,5-a]pyridin-6-yl)-1H-indol-5-yl)piperidin-1-yl)ethyl)heptanediamide]"
0.044,0.0013,0.0011,"N1,N12-bis(2-(4-(3-isopropyl-2-(8-methoxy-[1,2,4]triazolo[1,5-a]pyridin-6-yl)-1H-indol-5-yl)piperidin-1-yl)ethyl)dodecanediamide [Example 10]"
